The values that follow come from patent publication US12692396B2, “Fluorescent labeling agent and fluorescent dye” (artience Co., Ltd., priority 2020, dated 2026).

SMILES strings stand for the structures.

Series [1] has as its system Human epithelium cancer cells A431. Put plainly: Evaluation of visibility of cell (fluorescent microscope). It is filed as cell-based. On the set-up: key: P (Pass): Clear; F (Failure): Unclear. As to the method: <Evaluation of Visibility of Cell>
Human epithelium cancer cells A431 were seeded in a 96-well plate (1×10^4 cells/well). The A431 were cultured for 24 hours using an RPMI 1640 medium to which 10% fetal bovine serum (FBS) and 1% penicillin-streptomycin had been added in an incubator (37° C., 5% CO2-containing Air, humidified environment).
After cultivation, the medium was removed, and the fluorescent labeling agents prepared in Examples 127 to 189 and Comparative Examples 25 to 37 were added thereto and left to stand in the incubator for one hour. Next, these were washed in the RPMI 1640 medium. The dark field images and fluorescent images of the cells were observed using a fluorescent microscope (manufactured by Keyence Corporation, BZ-X800) equipped with an excitation filter for an appropriate wavelength and a fluorescent filter and evaluated based on the following standards.
• P (Pass): Clear • F (Failure): Unclear
The evaluation results of the visibility of the cells labeled with the fluorescent labeling agents 1, 15, 19, 24, 25, 68, and 75 are sequentially shown in FIGS. 2 to 8 (magnification: 10 times, optical uptake time: 1 second).
The evaluation results of the visibility of the cells labeled with the fluorescent labeling agents 42 and 53 are sequentially shown in FIGS. 9 to 10 (magnification: 40 times, optical uptake time: 1 second).
From what has been described above, it has been clarified that the fluorescent labeling agent according to the embodiment of the present invention has excellent characteristics as a fluorescent labeling agent.

The test system is the same in series [2]. Put plainly: Evaluation of cell toxicity of fluorescent labeling agent (cell counting kit-8, absorbance at 450 nm). The series is classed as cell-based. As for the experimental part: <Evaluation of Cell Toxicity of Fluorescent Labeling Agent>
Human epithelium cancer cells A431 were seeded in a 96-well plate (1×10^4 cells/well). Next, the A431 were cultured for 24 hours using an RPMI 1640 medium to which 10% fetal bovine serum (FBS) and 1% penicillin-streptomycin had been added in an incubator (37° C., 5% CO2-containing Air, humidified environment). As the RPMI 1640 medium, an RPMI-164-Medium manufactured by Sigma-Aldrich Inc. was used.
After cultivation, the medium was removed, the fluorescent labeling agents prepared in Examples 83 to 123 and Comparative Examples 25 to 37 and an RPMI 1640 medium containing 1% dimethyl sulfoxide (DMSO medium solution) were added thereto. These were left to stand in the incubator for one hour and then washed in the RPMI 1640 medium. 10 μL of a cell counting kit-8 (manufactured by Dojindo Laboratories.) was added to each well and left to stand in the incubator (37° C., 5% CO2-containing Air, humidified environment) for one hour. Next, the absorbance at 450 nm was measured using a plate reader (SPARK, manufactured by Tecan Trading AG).
The relative value of the absorbance of each fluorescent labeling agent when the absorbance of the well to which the DMSO medium solution had been added was regarded as one was calculated and evaluated based on the following standards. […] At the time of calculating the relative value of the absorbance of the fluorescent labeling agent, a value obtained by subtracting the absorbance before the addition of the cell counting kit-8 (manufactured by Dojindo Laboratories.) from the measured absorbance was used.
• P (Pass): 0.8 or more • F (Failure): Less than 0.8 <Evaluation of Fluorescence Intensity of Fluorescent Labeling Agent>
For orientation: Tetrazolium assays rely on reduction of a dye to a coloured formazan, in cell work by metabolically active cells.

The next series relates to phospholipids. The experiment in a line: Evaluation of property of fluorescent dye being accumulated in phospholipids (labeling agent intensity / dye solution intensity). The series is classed as cell-based, Human. The note with it: A431 cells, one hour; relative value, comparative compound 12 regarded as one; fluorescent wavelength range as in Table 22 (780-800 nm, 630-650 nm in last line). As for the experimental part: <Evaluation of Property of Fluorescent Dye being Accumulated in Phospholipids>
The property of each dye being accumulated in phospholipids was calculated from the fluorescence intensity integral value obtained from the fluorescent spectrum of the dye solution and the fluorescence intensity obtained from the fluorescence intensity of the fluorescent labeling agent using an expression (1). The relative value of the property of each fluorescent labeling agent being accumulated in phospholipids when the property of the comparative compound 12 being accumulated in phospholipids was regarded as one was calculated and evaluated based on the following standards. In a case where the relative value is evaluated as 3 or more, it can be said that each fluorescent dye has a favorable property of being accumulated in phospholipids.
• 4: The property of being accumulated in phospholipids is 4 or more. • 3: The property of being accumulated in phospholipids is 2 or more and less than 4. • 2: The property of being accumulated in phospholipids is 1 or more and less than 2. • 1: The property of being accumulated in phospholipids is less than 1. Property of being accumulated in phospholipids=fluorescence intensity of fluorescent labeling agent/fluorescence intensity of dye solution (1)

[3] abbreviates: A431 cells labeled for one hour, Clear/Unclear.
Where [4] appears, read: cell counting kit-8, absorbance at 450 nm, pass/fail grade.
[5] abbreviates: A431 cells, labeling agent left one hour.
[6] abbreviates: labeling agent left one hour, absorbance relative to DMSO medium solution regarded as one.

As to `O=C(O)CCCN1C(=O)C2=C(c3ccccc3)NC(=O)C2=C1c1ccccc1` [Fluorescent dye 38], the Cell visibility result in series [1] (setting [3]) is recorded as “P”. The Cell toxicity entry in series [2] (setting [4]) is given as “P (P (Pass): 0.8 or more)”.

`CN1/C(=C/C=C/C=C/C2=[N+](CCCCCC(=O)NCCCO)c3ccccc3C2(C)C)C(C)(C)c2ccccc21` [Fluorescent dye 62]: the Cell visibility entry in series [1] (setting [3]) is on record as “P”. Also, the Cell toxicity result in series [2] (setting [4]) is given as “P (P (Pass): 0.8 or more)”.

`CC(C)C(CC(=O)O)C(=O)NCCc1ccc(S(=O)(=O)[O][Al]2[n]3c4c5cc(C(C)(C)C)ccc5c3N=C3N=C(N=c5c6cc(C(C)(C)C)ccc6c([n]52)=NC2=NC(=N4)c4ccc(C(C)(C)C)cc42)c2ccc(C(C)(C)C)cc23)cc1` (centres unmarked) [Fluorescent dye 29]: in series [1] (setting [5]), the Cell visibility result is “P”. In series [2] (setting [6]), the Cell toxicity result is given as “P (P (Pass): 0.8 or more)”. The “Property of being accumulated in phospholipids” value in the series on phospholipids is 4 (4: The property of being accumulated in phospholipids is 4 or more.).

With `C[Si](C)(CCCN)[O][Al]1[n]2c3c4cccc(Sc5ccccc5)c4c2N=C2N=C(N=c4c5cccc(Sc6ccccc6)c5c([n]41)=NC1=NC(=N3)c3c(Sc4ccccc4)cccc31)c1c(Sc3ccccc3)cccc12` [Fluorescent dye 4], the Cell toxicity result in series [2] (setting [6]) is listed as “P (P (Pass): 0.8 or more)”.

As to `CCOc1cccc2c1C1=Nc3c4cccc(OCC)c4c4[n]3[Al-2]35([O]S(=O)(=O)c6ccc(O)cc6)[n]6c(c7cccc(OCC)c7c6=NC2=[N+]13)=NC1=[N+]5C(=N4)c2cccc(OCC)c21` [Fluorescent dye 55], in series [1] (setting [3]), the Cell visibility result is recorded as “P”. Also, in series [2] (setting [4]), the Cell toxicity result is reported as “P (P (Pass): 0.8 or more)”.

With `CCN(CC)c1ccc2c(-c3ccccc3C(=O)NCCCN(C)C)c3ccc(=[N+](CC)CC)cc-3oc2c1.[Cl-]` [Fluorescent dye 40], in series [1] (setting [3]), the Cell visibility entry is on record as “P”. In series [2] (setting [4]), the Cell toxicity entry is “P (P (Pass): 0.8 or more)”.

In the case of `C[Si](C)(CCCN)[O][Al]1[n]2c3c4cc(-c5ccccc5)ccc4c2N=C2N=C(N=c4c5cc(-c6ccccc6)ccc5c([n]41)=NC1=NC(=N3)c3ccc(-c4ccccc4)cc31)c1ccc(-c3ccccc3)cc12` [Fluorescent dye 2], in series [1] (setting [5]), the Cell visibility entry is recorded as “P”. In addition, in series [2] (setting [6]), the Cell toxicity entry is “P (P (Pass): 0.8 or more)”. For the same compound, the “Property of being accumulated in phospholipids” value in the series with phospholipids is 4 (4: The property of being accumulated in phospholipids is 4 or more.).

As to `CCOc1cccc2c1C1=Nc3c4cccc(OCC)c4c4[n]3[Mg][n]3c(c5cccc(OCC)c5c3=NC2=N1)=NC1=NC(=N4)c2ccc(OS(=O)(=O)c3ccc(CCCN)cc3)cc21` [Fluorescent dye 36], in series [1] (setting [3]), the Cell visibility entry was “P”. Further, the Cell toxicity entry in series [2] (setting [4]) was “P (P (Pass): 0.8 or more)”.

With `CCOc1cccc2c1C1=Nc3c4cccc(OCC)c4c4[n]3[Zn][n]3c(c5cccc(OCC)c5c3=NC2=N1)=NC1=NC(=N4)c2ccc(OS(=O)(=O)c3ccc(CCCN)cc3)cc21` [Fluorescent dye 37], the Cell visibility entry in series [1] (setting [3]) was “P”. The Cell toxicity result in series [2] (setting [4]) was “P (P (Pass): 0.8 or more)”.

With `CCCCCCCCCCCCCCCCCCc1ccc2c(c1)C1=NC2=Nc2c3cc(CCCCCCCCCCCCCCCCCC)ccc3c3[n]2[Al]([O]S(=O)(=O)c2ccc(CCN)cc2)[n]2c(c4ccc(CCCCCCCCCCCCCCCCCC)cc4c2=NC2=NC(=N3)c3cc(CCCCCCCCCCCCCCCCCC)ccc32)=N1` [Fluorescent dye 8], the Cell toxicity entry in series [2] (setting [6]) is listed as “P (P (Pass): 0.8 or more)”.

For `C[Si](C)(CCCN)[O][Al]1[n]2c3c4cc(C5CCCCC5)c(C5CCCCC5)cc4c2N=C2N=C(N=c4c5cc(C6CCCCC6)c(C6CCCCC6)cc5c([n]41)=NC1=NC(=N3)c3cc(C4CCCCC4)c(C4CCCCC4)cc31)c1cc(C3CCCCC3)c(C3CCCCC3)cc12` [Fluorescent dye 3], in series [2] (setting [6]), the Cell toxicity result is given as “P (P (Pass): 0.8 or more)”.

In the case of `CCOc1cccc2c1C1=NC2=Nc2c3c(OCC)cccc3c3[n]2[Al]([O]S(=O)(=O)c2ccc(CCN)cc2)[n]2c(c4cccc(OCC)c4c2=NC2=NC(=N3)c3c(OCC)cccc32)=N1` [Fluorescent dye 6], the Cell toxicity entry in series [2] (setting [6]) is listed as “P (P (Pass): 0.8 or more)”.

With `O=C1NC(c2ccccc2)=C2C(=O)N(CCCP(=O)(O)O)C(c3ccccc3)=C12` [Fluorescent dye 60], in series [1] (setting [3]), the Cell visibility entry is given as “P”. For the same compound, in series [2] (setting [4]), the Cell toxicity result is “P (P (Pass): 0.8 or more)”.

On to `CCOc1cccc2c1C1=NC2=Nc2c3c(OCC)cccc3c3[n]2[Al]([O]C(=O)c2ccc(C(=O)O)cc2)[n]2c(c4cccc(OCC)c4c2=NC2=NC(=N3)c3c(OCC)cccc32)=N1` [Fluorescent dye 11], for which the Cell toxicity entry in series [2] (setting [6]) is “P (P (Pass): 0.8 or more)”.

Take `CC(C)(C)c1ccc2c(c1)C1=NC2=Nc2c3cc(C(C)(C)C)ccc3c3[n]2[Al]([O]S(=O)(=O)c2ccc(CCN)cc2)[n]2c(c4ccc(C(C)(C)C)cc4c2=NC2=NC(=N3)c3cc(C(C)(C)C)ccc32)=N1` [Fluorescent dye 9]: the Cell toxicity entry in series [2] (setting [6]) is listed as “P (P (Pass): 0.8 or more)”.

Consider `CCOc1cccc2c1C1=Nc3c4cccc(OCC)c4c4[n]3[Al-2]35([O][PH](=O)CCCO)[n]6c(c7cccc(OCC)c7c6=NC2=[N+]13)=NC1=[N+]5C(=N4)c2cccc(OCC)c21` (centres unmarked) [Fluorescent dye 54], for which the Cell visibility result in series [1] (setting [3]) is given as “P”. Besides, the Cell toxicity entry in series [2] (setting [4]) is reported as “P (P (Pass): 0.8 or more)”.

With `CC(C)C(Oc1cccc2c1C1=NC2=Nc2c3c(OC(C(C)C)C(C)C)cccc3c3[n]2[Al]([O]S(=O)(=O)CCCOCCC(=O)O)[n]2c(c4cccc(OC(C(C)C)C(C)C)c4c2=NC2=NC(=N3)c3c(OC(C(C)C)C(C)C)cccc32)=N1)C(C)C` [Fluorescent dye 12], the Cell toxicity result in series [2] (setting [6]) is on record as “P (P (Pass): 0.8 or more)”.

As to `CN(C)CCCNC(=O)c1ccc(C(=O)O)c(-c2c3ccc(=O)cc-3oc3cc(O)ccc23)c1` [Fluorescent dye 39], the Cell visibility entry in series [1] (setting [3]) is on record as “P”. For the same compound, the Cell toxicity entry in series [2] (setting [4]) is recorded as “P (P (Pass): 0.8 or more)”.

Take `CC1=CC(C)=[N+]2C1=Cc1ccc(CCC(=O)NCCCO)n1[B-]2(F)F` [Fluorescent dye 63]: the Cell visibility entry in series [1] (setting [3]) is reported as “P”. Moreover, in series [2] (setting [4]), the Cell toxicity result was “P (P (Pass): 0.8 or more)”.

On to `CCOc1cccc2c1C1=NC2=Nc2c3c(OCC)cccc3c3n2[Si](O)(O[Si](C)(C)CCCN)n2c(c4cccc(OCC)c4c2=NC2=NC(=N3)c3c(OCC)cccc32)=N1` (centres unmarked) [Fluorescent dye 5], for which, in series [2] (setting [6]), the Cell toxicity entry was “P (P (Pass): 0.8 or more)”.

Regarding `CCOc1cccc2c1C1=NC2=Nc2c3c(OCC)cccc3c3[n]2[Al]([O]C(=O)CCCN)[n]2c(c4cccc(OCC)c4c2=NC2=NC(=N3)c3c(OCC)cccc32)=N1` [Fluorescent dye 10], the Cell toxicity result in series [2] (setting [6]) is “P (P (Pass): 0.8 or more)”.

On to `CC1=CC(C)=[N+]2C1Cc1ccc(CCC(=O)NCCCN(C)C)n1[B-]2(F)F` (centres unmarked) [Fluorescent dye 41], for which the Cell visibility result in series [1] (setting [3]) is listed as “P”. In addition, in series [2] (setting [4]), the Cell toxicity result is reported as “P (P (Pass): 0.8 or more)”.

Turning to `NCCc1ccc(S(=O)(=O)[O][Al]2[n]3c4c5cc(C(F)(F)F)ccc5c3N=C3N=C(N=c5c6cc(C(F)(F)F)ccc6c([n]52)=NC2=NC(=N4)c4ccc(C(F)(F)F)cc42)c2ccc(C(F)(F)F)cc23)cc1` [Fluorescent dye 7], the Cell toxicity entry in series [2] (setting [6]) was “P (P (Pass): 0.8 or more)”.
